Structures are written as SMILES. The source made the active and inactive calls. How the calls were made is not given here.

For the data set, the system named is CCRIS mutagenicity, Ames/micronucleus/aberration tests. The experiment in a line: CCRIS mutagenicity studies.
Where [1] appears, read: Test System: AMES SALMONELLA TYPHIMURIUM, Strain/Indicator: TA97, Metabolic Activation: NONE, Method: PREINCUBATION
Where [2] appears, read: Test System: AMES SALMONELLA TYPHIMURIUM, Strain/Indicator: TA98, Metabolic Activation: NONE, Method: PREINCUBATION
[3] abbreviates: Test System: AMES SALMONELLA TYPHIMURIUM, Strain/Indicator: TA98, Metabolic Activation: NONE, Method: STANDARD PLATE.
Where [4] appears, read: Test System: AMES SALMONELLA TYPHIMURIUM, Strain/Indicator: TA98, Metabolic Activation: RAT, LIVER, S-9, AROCLOR 1254, Method: STANDARD PLATE.
[5] abbreviates: Test System: AMES SALMONELLA TYPHIMURIUM, Strain/Indicator: TA100, Metabolic Activation: NONE, Method: PREINCUBATION
Setting [6] is: Test System: AMES SALMONELLA TYPHIMURIUM, Strain/Indicator: TA100, Metabolic Activation: NONE, Method: STANDARD PLATE.
Where [7] appears, read: Test System: AMES SALMONELLA TYPHIMURIUM, Strain/Indicator: TA100, Metabolic Activation: RAT, LIVER, S-9, AROCLOR 1254, Method: STANDARD PLATE.
Where [8] appears, read: Test System: AMES SALMONELLA TYPHIMURIUM, Strain/Indicator: TA1535, Metabolic Activation: NONE, Method: PREINCUBATION
The mark [9] stands for this setting: Test System: AMES SALMONELLA TYPHIMURIUM, Strain/Indicator: TA1535, Metabolic Activation: RAT, LIVER, S-9, AROCLOR 1254 (10 OR 30%), Method: PREINCUBATION

Regarding `CCCCOCCOCCO`, the mutagenic call reads like this: (Test System: AMES SALMONELLA TYPHIMURIUM, Strain/Indicator: TA97, Metabolic Activation: HAMSTER, LIVER, S-9, AROCLOR 1254 (10 OR 30%), Method: PREINCUBATION) “inactive; negative”; under setting [1], “inactive; negative”; (Test System: AMES SALMONELLA TYPHIMURIUM, Strain/Indicator: TA97, Metabolic Activation: RAT, LIVER, S-9, AROCLOR 1254 (10 OR 30%), Method: PREINCUBATION) “inactive; negative”; (Test System: AMES SALMONELLA TYPHIMURIUM, Strain/Indicator: TA98, Metabolic Activation: HAMSTER, LIVER, S-9, AROCLOR 1254 (10 OR 30%), Method: PREINCUBATION) “inactive; negative”; under setting [2], “inactive; negative”; under setting [3], “inactive; negative”. For the same compound, the mutagenic call runs as follows: (Test System: AMES SALMONELLA TYPHIMURIUM, Strain/Indicator: TA98, Metabolic Activation: RAT, LIVER, S-9, AROCLOR 1254 (10 OR 30%), Method: PREINCUBATION) “inactive; negative”; under setting [4], “inactive; negative”; (Test System: AMES SALMONELLA TYPHIMURIUM, Strain/Indicator: TA100, Metabolic Activation: HAMSTER, LIVER, S-9, AROCLOR 1254 (10 OR 30%), Method: PREINCUBATION) “inactive; negative”; under setting [5], “inactive; negative”; under setting [6], “inactive; negative”; (Test System: AMES SALMONELLA TYPHIMURIUM, Strain/Indicator: TA100, Metabolic Activation: RAT, LIVER, S-9, AROCLOR 1254 (10 OR 30%), Method: PREINCUBATION) “inactive; negative”. Also, the mutagenic call under setting [7] was “inactive; negative”; the mutagenic call (Test System: AMES SALMONELLA TYPHIMURIUM, Strain/Indicator: TA1535, Metabolic Activation: HAMSTER, LIVER, S-9, AROCLOR 1254 (10 OR 30%), Method: PREINCUBATION) was “inactive; negative”; the mutagenic call under setting [8] is “inactive; negative”; the mutagenic call (Test System: AMES SALMONELLA TYPHIMURIUM, Strain/Indicator: TA1535, Metabolic Activation: NONE, Method: STANDARD PLATE) is “inactive; negative”; the mutagenic call under setting [9] was “inactive; negative”; the mutagenic call (Test System: AMES SALMONELLA TYPHIMURIUM, Strain/Indicator: TA1535, Metabolic Activation: RAT, LIVER, S-9, AROCLOR 1254, Method: STANDARD PLATE) was “inactive; negative”. The mutagenic call reads like this: (Test System: AMES SALMONELLA TYPHIMURIUM, Strain/Indicator: TA1537, Metabolic Activation: NONE, Method: STANDARD PLATE) “inactive; negative”; (Test System: AMES SALMONELLA TYPHIMURIUM, Strain/Indicator: TA1537, Metabolic Activation: RAT, LIVER, S-9, AROCLOR 1254, Method: STANDARD PLATE) “inactive; negative”; (Test System: AMES SALMONELLA TYPHIMURIUM, Strain/Indicator: TA1538, Metabolic Activation: NONE, Method: STANDARD PLATE) “inactive; negative”; (Test System: AMES SALMONELLA TYPHIMURIUM, Strain/Indicator: TA1538, Metabolic Activation: RAT, LIVER, S-9, AROCLOR 1254, Method: STANDARD PLATE) “inactive; negative”; (Test System: CHINESE HAMSTER OVARY, Strain/Indicator: CHO-K1-BH4 (HGPRT)/6-THIOGUANINE, Metabolic Activation: NONE) “inactive; negative”; (Test System: CHINESE HAMSTER OVARY, Strain/Indicator: CHO-K1-BH4 (HGPRT)/THIOGUANINE, Metabolic Activation: RAT, LIVER, S-9, AROCLOR 1254) “inactive; negative”. The mutagenic call was “active; positive” (Test System: MOUSE LYMPHOMA, Strain/Indicator: L5178Y (TK+/TK-), Metabolic Activation: NONE, Method: SUSPENSION/PLATE); “inactive; negative” (Test System: MOUSE LYMPHOMA, Strain/Indicator: L5178Y (TK+/TK-), Metabolic Activation: RAT, LIVER, S-9, AROCLOR 1254, Method: SUSPENSION/PLATE); “inactive; negative” (Test System: UDS RAT HEPATOCYTES, Strain/Indicator: THY INCORP, Metabolic Activation: NONE, Method: AUTORADIOGRAPHY).
Regarding `CC(=O)N(O)c1ccccc1`, the mutagenic call was “inactive; negative” under setting [3], “inactive; negative” under setting [4], “inactive; negative” under setting [6] and “inactive; negative” under setting [7].
Take `CCN=NC(C)(C)OO`: the mutagenic call was “inactive; negative” (Test System: AMES SALMONELLA TYPHIMURIUM, Strain/Indicator: TA1535, Metabolic Activation: NONE) and “active; positive” (Test System: E. COLI, Strain/Indicator: WP2 (HCR-), Metabolic Activation: NONE).
As for `O=C1c2ccccc2C([N+](=O)[O-])c2ccccc21`, the mutagenic call by setting is: under setting [3], “inactive; negative”; under setting [4], “inactive; negative”; under setting [6], “inactive; negative”; under setting [7], “inactive; negative”.
Consider `ClCc1c2ccccc2cc2ccccc12`, for which the mutagenic call under setting [2] is “active; positive”; the mutagenic call (Test System: AMES SALMONELLA TYPHIMURIUM, Strain/Indicator: TA98, Metabolic Activation: RAT, LIVER, S-9, PCB, Method: PREINCUBATION) is “active; positive”; the mutagenic call under setting [5] was “active; positive”; the mutagenic call (Test System: AMES SALMONELLA TYPHIMURIUM, Strain/Indicator: TA100, Metabolic Activation: RAT, LIVER, S-9, PCB, Method: PREINCUBATION) is “active; positive”.
In the case of `COc1c(N2C[C@@H]3CCCN[C@@H]3C2)c(F)cc2c(=O)c(C(=O)O)cn(C3CC3)c12`, the mutagenic call (Test System: CHINESE HAMSTER V-79, Strain/Indicator: V-79 (HGPRT)/6-THIOGUANINE, Metabolic Activation: NONE, Method: STANDARD PLATE) is “inactive; negative”.
For `CCOP(=S)(OCC)OP(=S)(OCC)OCC`, the mutagenic call was “inactive; negative” (Test System: AMES SALMONELLA TYPHIMURIUM, Strain/Indicator: TA97, Metabolic Activation: HAMSTER, LIVER, S-9, AROCLOR 1254 (10%), Method: PREINCUBATION); “inactive; negative” under setting [1]; “inactive; negative” (Test System: AMES SALMONELLA TYPHIMURIUM, Strain/Indicator: TA97, Metabolic Activation: RAT, LIVER, S-9, AROCLOR 1254 (10%), Method: PREINCUBATION); “inactive; negative” (Test System: AMES SALMONELLA TYPHIMURIUM, Strain/Indicator: TA98, Metabolic Activation: HAMSTER, LIVER, S-9, AROCLOR 1254 (10%), Method: PREINCUBATION); “inactive; negative” under setting [2]; “inactive; negative” (Test System: AMES SALMONELLA TYPHIMURIUM, Strain/Indicator: TA98, Metabolic Activation: RAT, LIVER, S-9, AROCLOR 1254 (10%), Method: PREINCUBATION). Further, the mutagenic call runs as follows: (Test System: AMES SALMONELLA TYPHIMURIUM, Strain/Indicator: TA100, Metabolic Activation: HAMSTER, LIVER, S-9, AROCLOR 1254 (10%), Method: PREINCUBATION) “inactive; negative”; under setting [5], “inactive; negative”; (Test System: AMES SALMONELLA TYPHIMURIUM, Strain/Indicator: TA100, Metabolic Activation: RAT, LIVER, S-9, AROCLOR 1254 (10%), Method: PREINCUBATION) “inactive; negative”; (Test System: AMES SALMONELLA TYPHIMURIUM, Strain/Indicator: TA1535, Metabolic Activation: HAMSTER, LIVER, S-9, AROCLOR 1254 (5, 10 OR 30%), Method: PREINCUBATION) “active; positive”; under setting [8], “inactive; negative”; under setting [9], “inactive; negative”.
As to `O=S(=O)(O)OCc1cc2ccccc2c2ccc3ccccc3c12`, the mutagenic call under setting [2] was “active; positive”.
